Assay [1] concerns the target T1, glycine site of the NMDA receptor (Rattus norvegicus, UniProt P35439).
T1 construct: from tissue
Description: Glycine site of the NMDA receptor binding affinity (Jones et al.).

The target in a further assay is AMPA receptors. As to the kind of experiment: AMPA receptor binding affinity (Honore et al.).
Assay [2] relates to AMPA-induced neuronal damage in primary cortical neuronal cultures. As to the kind of experiment: AMPA-induced neuronal damage in primary cortical neuronal cultures, LDH release. To be noted: long-term exposure to 100 μM AMPA. It is filed as cell-based. As to the method:
To functionally measure AMPA antagonist activity, the effects of the agent on AMPA-induced neuronal damage in primary cortical neuronal cultures was examined using techniques similar to those outlined by Koh, J.-Y. et al., J. Neurosci, 1990; 10:693. The neuronal damage produced by long-term exposure to 100 μM AMPA was measured by the release of the cytosolic enzyme lactate dehydrogenase (LDH).
Selected compounds of the present invention were tested by one or more of the above-described assays. The IC50 values set forth in Tables 1 and 2 are a measure of the concentration (μM) of the test substance which inhibits 50% of an induced release from the tested receptors.

Assay [3] addresses kainate site (non-NMDA receptor). As to the kind of experiment: Kainate site (non-NMDA receptor) binding affinity (London and Coyle).
The mark [4] stands for this setting: Table 2, cyclopentyl-fused analogs.
[5] abbreviates: Table 1, cyclohexyl-fused analogs.

Structures can show the parent of a compound that is named as a salt. Where only a bound is given, the exact number is not on record here.

For `O=C(NC1Cc2c([N+](=O)[O-])cc3[nH]c(=O)c(=O)[nH]c3c2C1)c1cccnc1` (centres unmarked) [Example 61, N-(6-Nitro-2,3-dioxo-2,3,4,7,8,9-hexahydro-1H-cyclopenta[f]quinoxalin-8-yl)-nicotinamide], the IC50 (in general, the concentration that gives 50% inhibition) in assay [1] (setting [4]) is > 1 µM; at AMPA receptors (setting [4]) it was 0.2 µM; in assay [2] (setting [4]) it was 28 µM; in assay [3] (setting [4]), 1.03 µM.

As to `CC(=O)NC1CCc2c([N+](=O)[O-])cc3[nH]c(=O)c(=O)[nH]c3c2C1` (centres unmarked) [Example 17, N-(6-nitro-2,3-dioxo-1,2,3,4,7,8,9,10-octahydro-benzo[f]quinoxalin-9-yl)-acetamide], the IC50 was 0.62 µM in assay [1] (setting [5]), 0.56 µM on AMPA receptors (setting [5]), > 30 µM in assay [2] (setting [5]) and 2.2 µM in assay [3] (setting [5]).

`O=C(NC1Cc2c([N+](=O)[O-])cc3[nH]c(=O)c(=O)[nH]c3c2C1)c1ccccc1` (centres unmarked) [Example 39, N-(6-nitro-2,3-dioxo-4,7,8,9-tetrahydro-1H-cyclopenta[f]quinoxalin-8-yl)-benzamide]: the IC50 in assay [1] (setting [4]) worked out at 0.4 µM; on AMPA receptors (setting [4]), 0.11 µM; in assay [2] (setting [4]), 18 µM; in assay [3] (setting [4]), 0.48 µM.

In the case of `O=C(NC1Cc2c([N+](=O)[O-])cc3[nH]c(=O)c(=O)[nH]c3c2C1)C1(O)OC(O)C(O)C1O` (centres unmarked) [Example 63, 2,3,4,5-Tetrahydroxy-tetrahydro-furan-2-carboxylic acid (6-nitro-2,3-dioxo-2,3,4,7,8,9-hexahydro-1H-cyclopenta[f]quinoxalin-8-yl)-amide], the IC50 in assay [1] (setting [4]) is > 1 µM; on AMPA receptors (setting [4]), 0.58 µM; in assay [2] (setting [4]), > 30 µM; in assay [3] (setting [4]), 1.1 µM.

Turning to `O=C(NC1Cc2c([N+](=O)[O-])cc3[nH]c(=O)c(=O)[nH]c3c2C1)c1ccoc1` (centres unmarked) [Example 59, Furan-3-carboxylic acid (6-nitro-2,3-dioxo-2,3,4,7,8,9-hexahydro-1H-cyclopenta[f]quinoxalin-8-yl)-amide], the half-maximal inhibitory concentration (IC50) was > 1 µM in assay [1] (setting [4]), 0.14 µM on AMPA receptors (setting [4]), 14 µM in assay [2] (setting [4]) and 0.38 µM in assay [3] (setting [4]).

Regarding `O=C(NC1CCc2c([N+](=O)[O-])cc3[nH]c(=O)c(=O)[nH]c3c2C1)C1CCCCC1` (centres unmarked) [Example 37, N-(6-nitro-2,3-dioxo-1,2,3,4,7,8,9,10-octahydrobenzo[f]quinoxalin9-yl)cyclohexylamide], the IC50 was 0.5 µM in assay [1] (setting [5]) and 28 µM in assay [2] (setting [5]).

Consider `O=C(NC1Cc2c([N+](=O)[O-])cc3[nH]c(=O)c(=O)[nH]c3c2C1)c1ccsc1` (centres unmarked) [Example 60, Thiophene-3-carboxylic acid (6-nitro-2,3-dioxo-2,3,4,7,8,9-hexahydro-1H-cyclopenta[f]quinoxalin-8-yl)amide], for which the IC50 in assay [1] (setting [4]) was determined as 0.4 µM; on AMPA receptors (setting [4]) it was 0.1 µM; in assay [2] (setting [4]), 14 µM; in assay [3] (setting [4]) it was 0.36 µM.

`NC1CCc2c([N+](=O)[O-])cc3[nH]c(=O)c(=O)[nH]c3c2C1` (centres unmarked) [Example 15, 9-amino-6-nitro-1,4,7,8,9,10-hexahydro-benzo[f]quinoxaline-2,3-dione]: the IC50 was found to be 1.8 µM in assay [1] (setting [5]), 0.7 µM at AMPA receptors (setting [5]), 20 µM in assay [2] (setting [5]) and 2.8 µM in assay [3] (setting [5]).

For `O=C(NC1CCc2c([N+](=O)[O-])cc3[nH]c(=O)c(=O)[nH]c3c2C1)c1ccccc1` (centres unmarked) [Example 36, N-(6-nitro-2,3-dioxo-1,2,3,4,7,8,9,10-octahydrobenzo[f]quinoxalin-9-yl)-benzamide], the concentration for half-maximal inhibition (IC50) in assay [1] (setting [5]) came to 0.09 µM; on AMPA receptors (setting [5]), 0.42 µM; in assay [2] (setting [5]), 30 µM; in assay [3] (setting [5]), 0.9 µM.

With `O=C(NC1CCc2c([N+](=O)[O-])cc3[nH]c(=O)c(=O)[nH]c3c2C1)C1CCNCC1` (centres unmarked) [Example 40, 4-(6-nitro-2,3-dioxo-1,2,3,4,7,8,9,10-octahydrobenzo[f]quinoxaline-9-ylcarbamoyl)-piperidine hydrochloride], the 50% inhibitory concentration (IC50) in assay [1] (setting [5]) is 0.28 µM; at AMPA receptors (setting [5]), 0.27 µM; in assay [2] (setting [5]), 25 µM; in assay [3] (setting [5]), 0.82 µM.

These data come from patent US5721234A, “Glutamate receptor antagonists: fused cycloalkylouinoxalinediones” (Warner-Lambert Company, priority 1995, dated 1998).
